Patent publication US10334869B2, “Method for increasing concentration of avenanthramides in oats” (HER MAJESTY THE QUEEN IN RIGHT OF CANADA, AS REPRESENTED BY …, priority 2009, dated 2019)
Read-outs that look alike come from different tables or passages of the source.

What was measured:
dormant oat VAO-48 = assay: CaCl2 in anaerobic steep water, avenanthramide accumulation during false malting of VAO-48; format: in vivo; settings: for All others / Avenanth A / Avenanth B / Avenanth C / Total Avenanth: four days 30° C., avenanthramide A equivalents
Protocol: (§1) In a third method, samples (10 μl) were injected into a C18 reversed-phase column (Zorbax Stable™ bond C18, 3.5 μm, 4.6 mm×150 mm) maintained at 30° C. Solvents for HPLC were A: methanol, B: water and C: 0.5M formic acid. The solvent gradient (vol. %) consisted of 45A:45B:10C, linearly increasing to 55A:35B:10C over 24 min, and linearly increasing to 70A:20B:10C over 9 min, then reaching 95A:5C over 3 min and holding for 3 min. The solvent gradient was brought back to original conditions over 3 min, allowed equilibrating for 3 min.
(§2) Individual avenanthramides were quantified by determining the peak areas at 330 nm relative to an external authentic avenanthramide A standard and expressed as avenanthramide A weight equivalents. Total avenanthramides were calculated by summing all the individual avenanthramide quantities calculated as avenanthramide A weight equivalents and expressed as parts per million (ppm) avenanthramide A equivalents on a dry weight basis.
25 g samples of the hulless, hairless, dormant oat VAO-48 was anaerobically steeped in either water or various concentrations of USP-grade CaCl2.(H2O)2 solutions at 35° C. After steeping for 18 hours and air drying in a seed dryer for about four hours, the seeds were surface sterilized as above then ‘false malted” using Petri dishes (150×50 mm) in the dark at 30° C. in a controlled temperature oven for four days. The germination rate in all cases was less than 1% after four days. After malting the seeds were removed, dried at room temperature (forced air) for four hours then brought to constant weight by drying at 37° C. for ˜40 hours and stored at −20° C. until analyzed for avenanthramide content by the third method described above (μg avenanthramide A equivalents/g dry wt=ppm avenanthramide A), and compared to un-malted material.

non-dormant oat VAO-22 = assay: CaCl2 in anaerobic steep water, avenanthramide accumulation during false malting of VAO-22; format: in vivo; settings: for All others / Avenanth A / Avenanth B / Avenanth C / Total Avenanth: four days 30° C., avenanthramide A equivalents
Protocol: as §1, §2
A 1,300 g sample of VAO-22 hulless, hairless, non-dormant oat breeder's seed was used (84% germination rate after four days). The seeds were then heat treated as in Example 5. A 25 g sample was used as a control representing the un-malted seeds and stored at −20° C. until analyzed. The rest of the heat treated material was anaerobically steeped at 35° C. in either 1.0% or 2.0% Ca Cl2.(H2O)2 for 18 hours and air drying in a seed dryer for about four hours. The seeds were then surface sterilized as above and ‘false malted” in the dark at 30° C. in a controlled temperature oven for four days using Petri dishes (150×50 mm). After malting the seeds were removed, dried at room temperature (forced air) for four hours then brought to constant weight by drying at 37° C. for ˜40 hours and stored at −20° C. until analyzed for avenanthramide content by HPLC using the third method described above (μg avenanthramide A equivalents/g dry wt=ppm avenanthramide A), and compared to un-malted material.

[1] = test system: colonic cancer cell lines; settings: about 20 to 50 ppm; cited from earlier work
normal cell lines = settings: about 20 to 50 ppm; cited from earlier work
smooth muscle cells [2] = settings: about 40 ppm; rat; cited from earlier work
smooth muscle cells [3] = settings: about 40 ppm; human; cited from earlier work
heat treated oats = assay: germination of heat treated oats incubated with gibberellin; format: in vivo, oats (VAO-2); settings: 100 ppm gibberellin, 5 days; two-phase dry heated oats

Compound: O.O.[Ca+2].[Cl-].[Cl-] [CaCl2, CaCl2.(H2O)2]
- All others (dormant oat VAO-48; 0.05% CaCl2 in steeping water): 287.3 ± 30.9 ppm
- Avenanth A (dormant oat VAO-48; 0.05% CaCl2 in steeping water): 37.7 ± 5.6 ppm
- Avenanth B (dormant oat VAO-48; 0.05% CaCl2 in steeping water): 122.0 ± 14.8 ppm
- Avenanth C (dormant oat VAO-48; 0.05% CaCl2 in steeping water): 81.5 ± 9.4 ppm
- Total Avenanth (dormant oat VAO-48; 0.05% CaCl2 in steeping water): 528.4 ± 30.9 ppm
- All others (dormant oat VAO-48; 0.10% CaCl2 in steeping water): 251.4 ± 10.4 ppm
- Avenanth A (dormant oat VAO-48; 0.10% CaCl2 in steeping water): 27.2 ± 11.4 ppm
- Avenanth B (dormant oat VAO-48; 0.10% CaCl2 in steeping water): 113.4 ± 5.8 ppm
- Avenanth C (dormant oat VAO-48; 0.10% CaCl2 in steeping water): 75.7 ± 4.6 ppm
- Total Avenanth (dormant oat VAO-48; 0.10% CaCl2 in steeping water): 467.7 ± 32.1 ppm
- All others (dormant oat VAO-48; 0.50% CaCl2 in steeping water): 400.1 ± 0.3 ppm
- Avenanth A (dormant oat VAO-48; 0.50% CaCl2 in steeping water): 59.9 ± 1.1 ppm
- Avenanth B (dormant oat VAO-48; 0.50% CaCl2 in steeping water): 155.3 ± 2.3 ppm
- Avenanth C (dormant oat VAO-48; 0.50% CaCl2 in steeping water): 126.4 ± 2.8 ppm
- Total Avenanth (dormant oat VAO-48; 0.50% CaCl2 in steeping water): 741.7 ± 6.5 ppm
- overall increase of avenanthramide concentration over un-malted seeds (dormant oat VAO-48; 1% Ca+2): about 23.6 fold
- All others (dormant oat VAO-48; 1.0% CaCl2 in steeping water): 401.1 ± 15.4 ppm
- Avenanth A (dormant oat VAO-48; 1.0% CaCl2 in steeping water): 68.7 ± 3.3 ppm
- Avenanth B (dormant oat VAO-48; 1.0% CaCl2 in steeping water): 149.0 ± 8.2 ppm
- Avenanth C (dormant oat VAO-48; 1.0% CaCl2 in steeping water): 138.1 ± 4.0 ppm
- Total Avenanth (dormant oat VAO-48; 1.0% CaCl2 in steeping water): 757.0 ± 30.9 ppm
- increase of avenanthramide concentration over steeping with no added Ca+2 (dormant oat VAO-48; 1% added Ca+2): approximately 1.7 fold
- avenanthramide B fold over initial value (non-dormant oat VAO-22; 1% CaCl2): 23.4 fold
- avenanthramide B increase over initial value (non-dormant oat VAO-22; 1% CaCl2): 2,240%
- avenanthramide C fold over initial (non-dormant oat VAO-22; 1% CaCl2): 28.4 fold
- avenanthramide C increase over initial (non-dormant oat VAO-22; 1% CaCl2): 2,735%
- total avenanthramide fold over initial (non-dormant oat VAO-22; 1% CaCl2): 24.1 fold
- total avenanthramide levels relative to initial (non-dormant oat VAO-22; 1% CaCl2): 2,307%
- All others (non-dormant oat VAO-22; 1.0% CaCl2 in steeping water): 360.1 ± 2.4 ppm
- Avenanth A (non-dormant oat VAO-22; 1.0% CaCl2 in steeping water): 27.0 ± 0.22 ppm
- Avenanth B (non-dormant oat VAO-22; 1.0% CaCl2 in steeping water): 79.7 ± 0.26 ppm
- Avenanth C (non-dormant oat VAO-22; 1.0% CaCl2 in steeping water): 65.2 ± 0.26 ppm
- Total Avenanth (non-dormant oat VAO-22; 1.0% CaCl2 in steeping water): 532.0 ± 3.16 ppm
- avenanthramide B fold over initial (non-dormant oat VAO-22; 2% CaCl2): 30.3 fold
- avenanthramide B increase over initial value (non-dormant oat VAO-22; 2% CaCl2): 2,930%
- avenanthramide C fold over initial (non-dormant oat VAO-22; 2% CaCl2): 43.5 fold
- avenanthramide C increase over initial (non-dormant oat VAO-22; 2% CaCl2): 4,252%
- total avenanthramide fold over initial (non-dormant oat VAO-22; 2% CaCl2): 31.9 fold
- total avenanthramide levels relative to initial (non-dormant oat VAO-22; 2% CaCl2): 3,190%
- All others (non-dormant oat VAO-22; 2.0% CaCl2 in steeping water): 461.7 ± 8.8 ppm
- Avenanth A (non-dormant oat VAO-22; 2.0% CaCl2 in steeping water): 46.7 ± 0.08 ppm
- Avenanth B (non-dormant oat VAO-22; 2.0% CaCl2 in steeping water): 103.0 ± 0.06 ppm
- Avenanth C (non-dormant oat VAO-22; 2.0% CaCl2 in steeping water): 100.1 ± 0.38 ppm
- Total Avenanth (non-dormant oat VAO-22; 2.0% CaCl2 in steeping water): 711.4 ± 9.32 ppm

Compound: O=C(/C=C/c1ccc(O)c(O)c1)Nc1ccc(O)cc1C(=O)O [avenanthramide C]
- anti-inflammatory activity [1]: anti-inflammatory
- anti-proliferative activity [1]: anti-proliferative activity
- effect on normal cell lines (normal cell lines): no effect
- nitric oxide production (smooth muscle cells [2]): inhibit
- proliferation of smooth muscle cells (smooth muscle cells [2]): inhibit the proliferation
- nitric oxide production (smooth muscle cells [3]): inhibit
- proliferation of smooth muscle cells (smooth muscle cells [3]): inhibit the proliferation

Compound: gibberellin
- germination (heat treated oats): almost complete restoration of germination
